In the assay the test system is osteoclast differentiation. The assay can be described thus: Osteoclast differentiation in co-culture of mouse bone marrow cells and ST2 cells, TRAP staining (Examples 8-9). In kind it is cell-based. The settings on record: for % number of osteoclast (vs. solvent control group): day 7; for activity at 0.1 µM: Mus musculus, Osteoclast, 168 h, day 7, read-out: % number of osteoclast (vs. solvent control group). The method, boiled down: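 Readout was TRAP-positive multinucleated (≥6 nuclei) cells on day 7, reported as % of 0.1% DMSO control, mean±SD of 4 wells. Cells were mouse (male ddY) bone marrow plus ST2 co-cultures driven by 10^−8 M vitamin D3/dexamethasone. Benzamidines, alendronic acid or risedronic acid were added at 0.1 μM alone or combined, with media renewed days 3 and 5.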

The mark [1] stands for this setting: Combination treatment (alendronic acid + compounds), 0.1 μM each.
Where [2] appears, read: Combination treatment (risedronic acid + compounds), 0.1 μM each.
The mark [3] stands for this setting: Individual treatment (compounds), 0.1 μM.

Marks after values point to notes of the source that are not given here.

`Cc1nc(-c2ccc(OCc3cccc(COc4ccc(C(=N)NO)cc4)c3)cc2)c(C(C)C)s1` [Compound 209, N-hydroxy-4-{3-[4-(5-isopropyl-2-methyl-thiazol-4-yl)-phenoxymethyl]-benzyloxy}-benzamidine]: the “% number of osteoclast (vs. solvent control group)” value (“% number of osteoclast” below) reads like this: under setting [1], 41 ± 12.0^ab %; under setting [2], 50 ± 6.1^ac %. Besides, under setting [3], the activity at 0.1 µM is 74 ± 7.4%.

For the compound `Cc1sc(NC(=O)C(C)C)nc1-c1ccc(OCCCCCOc2ccc(C(=N)NO)cc2)cc1` [Compound 69, N-hydroxy-4-{5-[4-(2-(isobutyryl)amino-5-methyl-1,3-thiazol-4-yl)phenoxy]pentyloxy}-benzamidine], the “% number of osteoclast” value under setting [1] is reported as 49 ± 7.8^ab % and the “% number of osteoclast” value under setting [2] is 44 ± 1.4^ac %. Further, the activity at 0.1 µM under setting [3] turned out to be 80 ± 11.6%.

On to `Cc1nc(-c2ccc(OCCCCCOc3ccc(C(=N)N)cc3)cc2)c(C)s1` [Compound 54, 4-{5-[4-(2,5-dimethyl-1,3-thiazol-4-yl)phenoxy]pentyloxy}-benzamidine], for which the “% number of osteoclast” value runs as follows: under setting [1], 20 ± 4.1^ab %; under setting [2], 19 ± 4.9^ac %. Besides, the activity at 0.1 µM under setting [3] was found to be 41 ± 8.3%.

`CCc1nc(-c2ccc(OCCCCCOc3ccc(C(=N)NO)cc3)cc2)c(CC2CCCC2)s1` [Compound 46, N-hydroxy-4-{5-[4-(5-cyclopentylmethyl-2-ethyl-1,3-thiazol-4-yl)phenoxy]pentyloxy}-benzamidine]: the “% number of osteoclast” value under setting [1] is on record as 36 ± 5.1^ab % and the “% number of osteoclast” value under setting [2] was 31 ± 8.5^ac %. Besides, the activity at 0.1 µM under setting [3] was determined as 71 ± 9.4%.

`Cc1nc(-c2ccc(OCCCCCOc3ccc(C(=N)NO)cc3)cc2)c(CNCCCn2ccnc2)s1` [Compound 303, N-hydroxy-4-[5-(4-{5-[(3-imidazol-1-yl-propylamino)-methyl]-2-methyl-thiazol-4-yl}-phenoxy)-pentyloxy]-benzamidine]: the “% number of osteoclast” value reads like this: under setting [1], 12 ± 2.5^ab %; under setting [2], 8 ± 2.2^ac %. The activity at 0.1 µM under setting [3] amounted to 53 ± 10.7%.

Consider `CNc1nc(-c2ccc(OCCCCCOc3ccc(C(=N)NO)cc3)cc2)c(CC2CCCC2)s1` [Compound 109, N-hydroxy-4-{5-[4-(5-cyclopentylmethyl-2-methylamino-1,3-thiazol-4-yl)phenoxy]pentyloxy}-benzamidine], for which the “% number of osteoclast” value under setting [1] is given as 49 ± 9.8^b % and the “% number of osteoclast” value under setting [2] is given as 30 ± 6.5^ac %. Besides, the activity at 0.1 µM under setting [3] came to 60 ± 9.6%.

As for `N=C(NO)c1ccc(OCCCCCOc2ccc(-c3nc(-c4ccccc4)sc3Cc3ccccc3)cc2)cc1` [Compound 40, N-hydroxy-4-{5-[4-(5-benzyl-2-phenyl-1,3-thiazol-4-yl)phenoxy]pentyloxy}-benzamidine], the “% number of osteoclast” value is 28 ± 4.1^ab % under setting [1] and 20 ± 3.4^ac % under setting [2]. Besides, the activity at 0.1 µM under setting [3] was 66 ± 7.1%.

Regarding `CC(C)c1nc(-c2ccc(OCCCCCOc3ccc(C(=N)NO)cc3)cc2)c(CCN(C(=O)c2ccncc2)C2CC2)s1` [Compound 280, N-hydroxy-4-{5-[4-(5-{2-[cyclopropyl-(pyridin-4-carbonyl)-amino]-ethyl}-2-isopropyl-thiazol-4-yl)-phenoxy]-pentyloxy}-benzamidine], the “% number of osteoclast” value under setting [1] is reported as 25 ± 6.4^b % and the “% number of osteoclast” value under setting [2] is on record as 8 ± 1.4^ac %. Further, under setting [3], the activity at 0.1 µM was 40 ± 5%.

Regarding `Cc1nc(-c2ccc(OCCCCCOc3ccc(C(=N)NO)cc3)cc2)c(CCNC2CCCCC2)s1` [Compound 223, N-hydroxy-4-(5-{4-[5-(2-cyclohexylamino-ethyl)-2-methyl-thiazol-4-yl]-phenoxy}-pentyloxy)-benzamidine], the “% number of osteoclast” value is, setting by setting: under setting [1], 73 ± 8.2%; under setting [2], 60 ± 12.6%. In addition, under setting [3], the activity at 0.1 µM came out at 81 ± 3.8%.

For the compound `N=C(NO)c1ccc(OCCCCCOc2ccc(-c3nc(N4CCCCC4)sc3N3CCOCC3)cc2)cc1` [Compound 337, N-hydroxy-4-{5-[4-(5-morpholin-4-yl-2-piperidin-1-yl-thiazol-4-yl)-phenoxy]-pentyloxy}-benzamidine], the “% number of osteoclast” value runs as follows: under setting [1], 20 ± 3.0^ab %; under setting [2], 16 ± 3.6^ac %. The activity at 0.1 µM under setting [3] stood at 53 ± 3.7%.

Consider `Cc1nc(-c2ccc(OCCCCCN(C)c3ccc(C(=N)NO)cc3)cc2)c(C(C)C)s1` [Compound 183, N-hydroxy-4-({5-[4-(5-isopropyl-2-methyl-1,3-thiazol-4-yl)-phenoxy]-pentyl}-methyl-amino)-benzamidine], for which the “% number of osteoclast” value runs as follows: under setting [1], 26 ± 6.1^ab %; under setting [2], 37 ± 5.3^ac %. The activity at 0.1 µM under setting [3] was determined as 66 ± 7.4%.

For `N=C(NO)c1ccc(OCCCCCOc2ccc(-c3nc(N(CCN4CCOCC4)Cc4ccccc4)sc3CCN3CCOCC3)cc2)cc1` [Compound 269, N-hydroxy-4-(5-{4-[2-[benzyl-(2-morpholin-4-yl-ethyl)-amino]-5-(2-morpholin-4-yl-ethyl)-thiazol-4-yl]-phenoxy}-pentyloxy)-benzamidine], the “% number of osteoclast” value is, setting by setting: under setting [1], 23 ± 5.2^ab %; under setting [2], 17 ± 4.4^ac %. Moreover, under setting [3], the activity at 0.1 µM was 38 ± 3.7%.

For `CCCN1CCC(c2nc(-c3ccc(OCCCCCOc4ccc(C(=N)NO)cc4)cc3)c(CC3CCCC3)s2)CC1` [Compound 68, N-hydroxy-4-{5-[4-(5-cyclopentylmethyl-2-(1-propyl-piperidin-4-yl)-1,3-thiazol-4-yl)phenoxy]pentyloxy}-benzamidine], the “% number of osteoclast” value is, setting by setting: under setting [1], 14 ± 1.4^ab %; under setting [2], 8 ± 1.9^ac %. For the same compound, the activity at 0.1 µM under setting [3] was found to be 42 ± 6.9%.

Regarding `Cc1nc(-c2ccc(OCCCCCOc3ccc(C(=N)NO)cc3)cc2)c(CNC(C)(C)C)s1` [Compound 300, N-hydroxy-4-(5-{4-[5-(tert-butylamino-methyl)-2-methyl-thiazol-4-yl]-phenoxy}-pentyloxy)-benzamidine], the “% number of osteoclast” value under setting [1] is listed as 12 ± 1.7^ab % and the “% number of osteoclast” value under setting [2] was 8 ± 5.2^ac %. Besides, the activity at 0.1 µM under setting [3] came out at 48 ± 3%.

For the compound `CCCN(CCC)c1nc(-c2ccc(OCCCCCOc3ccc(C(=N)NO)cc3)cc2)c(C(C)C)s1` [Compound 157, N-hydroxy-4-{5-[4-(5-isopropyl-2-dipropylamino-1,3-thiazol-4-yl)phenoxy]pentyloxy}-benzamidine], the “% number of osteoclast” value by setting is: under setting [1], 39 ± 8.3^ab %; under setting [2], 36 ± 15.1^ac %. The activity at 0.1 µM under setting [3] was 78 ± 13.5%.

Take `CCN(Cc1ccccc1)c1nc(-c2ccc(OCCCCCOc3ccc(C(=N)NO)cc3)cc2)c(C)s1` [Compound 127, N-hydroxy-4-[5-{4-[2-(benzyl-ethyl-amino)-5-methyl-1,3-thiazol-4-yl]phenoxy}pentyloxy]-benzamidine]: the “% number of osteoclast” value by setting is: under setting [1], 37 ± 6.8^ab %; under setting [2], 33 ± 7.3^ac %. Besides, the activity at 0.1 µM under setting [3] worked out at 75 ± 14.3%.

As to `CCN(CCN1CCOCC1)c1nc(-c2ccc(OCCCCCOc3ccc(C(=N)NO)cc3)cc2)c(C)s1` [Compound 124, N-hydroxy-4-[5-(4-{2-[ethyl-1-(2-morpholinoethyl)-amino]-5-methyl-1,3-thiazol-4-yl}phenoxy)pentyloxy]-benzamidine], the “% number of osteoclast” value is listed as 21 ± 4.3^ab % under setting [1], 17 ± 5.2^ac % under setting [2] and 49 ± 3.0% under setting [3].

Turning to `N=C(NO)c1ccc(OCCCCCOc2ccc(-c3nc(N4CCOCC4)sc3N3CCOCC3)cc2)cc1` [Compound 290, N-hydroxy-4-{5-[4-(2,5-di-morpholin-4-yl-thiazol-4-yl)-phenoxy]-pentyloxy}-benzamidine], the “% number of osteoclast” value is, setting by setting: under setting [1], 23 ± 4.7^ab %; under setting [2], 12 ± 2.0^ac %. Under setting [3], the activity at 0.1 µM worked out at 52 ± 6.2%.

On to `C=Cc1sc(-c2cccnc2)nc1-c1ccc(OCCCCCOc2ccc(C(=N)NO)cc2)cc1` [Compound 79, N-hydroxy-4-{5-[4-(5-vinyl-2-(pyridin-3-yl)-1,3-thiazol-4-yl)phenoxy]pentyloxy}-benzamidine], for which the “% number of osteoclast” value under setting [1] was 22 ± 6.7^ab % and the “% number of osteoclast” value under setting [2] was 16 ± 4.0^ac %. The activity at 0.1 µM under setting [3] amounted to 44 ± 7.5%.

As to `COCCN(CCOC)c1nc(-c2ccc(OCCCCCOc3ccc(C(=N)NO)cc3)cc2)c(C)s1` [Compound 122, N-hydroxy-4-[5-(4-{2-[bis-(2-methoxyethyl) -amino]-5-methyl-1,3-thiazol-4-yl}phenoxy)pentyloxy]-benzamidine], the “% number of osteoclast” value reads like this: under setting [1], 37 ± 8.1^ab %; under setting [2], 49 ± 7.3^ac %. The activity at 0.1 µM under setting [3] is 71 ± 4.4%.

For the compound `Cc1nc(-c2ccc(OCC=CCOc3ccc(C(=N)NO)cc3)cc2)c(C(C)C)s1` [Compound 184, N-hydroxy-4-{4-[4-(5-isopropyl-2-methyl-1,3-thiazol-4-yl)-phenoxy]-but-2-enyloxy}-benzamidine], the “% number of osteoclast” value runs as follows: under setting [1], 38 ± 3.7^ab %; under setting [2], 38 ± 6.9^ac %. The activity at 0.1 µM under setting [3] came to 62 ± 4.6%.

In the case of `COCCNCc1sc(N(C)CCN2CCOCC2)nc1-c1ccc(OCCCCCOc2ccc(C(=N)NO)cc2)cc1` [Compound 318, N-hydroxy-4-[5-(4-{5-[(2-methoxy-ethylamino) -methyl]-2-[methyl-(2-morpholin-4-yl-ethyl)-amino]-thiazol-4-yl}-phenoxy) -pentyloxy]-benzamidine], the “% number of osteoclast” value runs as follows: under setting [1], 27 ± 3.0^ab %; under setting [2], 12 ± 1.8^ac %. Moreover, under setting [3], the activity at 0.1 µM worked out at 43 ± 3.7%.
